This passage reports Ki results from BindingDB's records for doi:10.7270/Q2N8786X (Vanderbilt Screening Center For Gpcrs, Ion Channels and …, 2009).

Structures are written as SMILES.

The assay concerns the target T1, Muscarinic acetylcholine receptor M5 (Homo sapiens, UniProt P08912).
T1 sequence (P08912 whole entry): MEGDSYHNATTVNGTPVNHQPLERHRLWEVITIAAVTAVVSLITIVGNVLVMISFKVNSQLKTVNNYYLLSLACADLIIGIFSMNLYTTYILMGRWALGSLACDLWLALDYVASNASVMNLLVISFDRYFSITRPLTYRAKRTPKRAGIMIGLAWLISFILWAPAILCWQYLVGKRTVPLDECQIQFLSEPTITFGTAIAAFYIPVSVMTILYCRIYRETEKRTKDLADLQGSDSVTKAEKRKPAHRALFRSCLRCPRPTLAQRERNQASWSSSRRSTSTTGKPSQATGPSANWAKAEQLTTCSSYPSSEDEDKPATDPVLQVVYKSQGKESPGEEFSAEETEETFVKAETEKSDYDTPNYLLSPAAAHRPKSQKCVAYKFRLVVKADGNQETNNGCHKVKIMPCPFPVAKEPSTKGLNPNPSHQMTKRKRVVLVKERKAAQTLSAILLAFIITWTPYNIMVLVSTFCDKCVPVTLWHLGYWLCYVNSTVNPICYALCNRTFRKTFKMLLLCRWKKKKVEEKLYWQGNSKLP
The assay can be described thus: binding competition at muscarinic M5 – biochemical, [3H]N-methylscopolamine (AID 2192). The note with it: inactive by the depositor's call.

What is called Ki is the equilibrium dissociation constant of an inhibitor or competing ligand from its target. In the case of `COc1ccc(CN2C(=O)C(=O)c3cc(OC(F)(F)F)ccc32)cc1` [VU0238429], the Ki amounted to 1160 nM.
